Data as given in US8114880B2, “Piperidine or piperazine substituted tetrahydro-naphthalene-1-carboxylic acid MTP inhibiting compounds” (Janssen Pharmaceutica N.V., priority 2006, dated 2012).
pIC50: −log10 of the molar value.

What follows are compounds tested against MTP (Homo sapiens, UniProt P55157) (assay: MTP assay (triglyceride transfer from donor to acceptor vesicles)). Details: MTP activity, percent triglyceride transfer from donor to acceptor vesicles, 37° C.
Type: biochemical
Procedure: MTP activity was measured using an assay similar to one described by J. R. Wetterau and D. B. Zilversmit in Chemistry and Physics of Lipids, 38, 205-222 (1985). To prepare the donor and acceptor vesicles, the appropriate lipids in chloroform were put into a glass test tube and dried under a stream of nitrogen. A buffer containing 15 mM Tris-HCl pH 7.5, 1 mM EDTA, 40 mM NaCl, 0.02% NaN3 (assay buffer) was added to the dried lipid. The mixture was vortexed briefly and the lipids were then allowed to hydrate for 20 minutes on ice. Vesicles were then prepared by bath sonication (Branson 2200) at room temperature for maximum 15 minutes. Butylated hydroxytoluene was included in all vesicle preparations at a concentration of 0.1%. The lipid transfer assay mixture contained donor vesicles (40 nmol phosphatidylcholine, 7.5 mol % of cardiolipin and 0.25 mol % glycerol tri [1-^14C]-oleate), acceptor vesicles (240 nmol phosphatidylcholine) and 5 mg BSA in a total volume of 675 μl in a 1.5 ml microcentrifuge tube. Test compounds were added dissolved in DMSO (0.13% final concentration). After 5 minutes of pre-incubation at 37° C., the reaction was started by the addition of MTP in 100 μl dialysis buffer. The reaction was stopped by the addition of 400 μl DEAE-52 cellulose pre-equilibrated in 15 mM Tris-HCl pH 7.5, 1 mM EDTA, 0.02% NaN3 (1:1, vol/vol). The mixture was agitated for 4 minutes and centrifuged for 2 minutes at maximum speed in an Eppendorf centrifuge (4° C.) to pellet the DEAE-52-bound donor vesicles. An aliquot of the supernatant containing the acceptor liposomes was counted and the [^14C]-counts were used to calculate the percent triglyceride transfer from donor to acceptor vesicles.

MTP, sequence (P55157 19-894, species assumed): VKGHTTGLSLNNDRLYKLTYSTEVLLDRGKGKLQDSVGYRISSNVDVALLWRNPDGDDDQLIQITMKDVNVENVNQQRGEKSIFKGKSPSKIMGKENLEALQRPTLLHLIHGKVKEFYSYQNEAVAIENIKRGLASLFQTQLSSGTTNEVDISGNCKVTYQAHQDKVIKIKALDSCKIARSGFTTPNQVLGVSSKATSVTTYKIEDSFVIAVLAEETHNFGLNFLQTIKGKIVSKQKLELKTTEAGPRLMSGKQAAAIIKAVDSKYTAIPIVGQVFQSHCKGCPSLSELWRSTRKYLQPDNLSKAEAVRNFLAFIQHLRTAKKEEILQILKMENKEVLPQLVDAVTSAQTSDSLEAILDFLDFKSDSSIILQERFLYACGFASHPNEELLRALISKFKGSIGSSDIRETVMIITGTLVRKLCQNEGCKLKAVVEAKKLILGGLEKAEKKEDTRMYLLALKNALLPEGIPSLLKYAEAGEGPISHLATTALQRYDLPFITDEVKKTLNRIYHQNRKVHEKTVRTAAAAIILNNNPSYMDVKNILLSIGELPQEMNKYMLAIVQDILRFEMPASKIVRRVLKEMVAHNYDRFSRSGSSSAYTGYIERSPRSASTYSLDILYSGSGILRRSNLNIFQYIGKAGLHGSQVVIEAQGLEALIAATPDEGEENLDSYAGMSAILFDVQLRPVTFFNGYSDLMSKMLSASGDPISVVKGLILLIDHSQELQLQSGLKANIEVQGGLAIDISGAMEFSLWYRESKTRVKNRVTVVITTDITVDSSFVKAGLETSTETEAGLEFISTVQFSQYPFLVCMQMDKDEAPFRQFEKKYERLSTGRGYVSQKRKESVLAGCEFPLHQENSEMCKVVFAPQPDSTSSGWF
MTP, sequence (P07237 18-508 partner, species assumed): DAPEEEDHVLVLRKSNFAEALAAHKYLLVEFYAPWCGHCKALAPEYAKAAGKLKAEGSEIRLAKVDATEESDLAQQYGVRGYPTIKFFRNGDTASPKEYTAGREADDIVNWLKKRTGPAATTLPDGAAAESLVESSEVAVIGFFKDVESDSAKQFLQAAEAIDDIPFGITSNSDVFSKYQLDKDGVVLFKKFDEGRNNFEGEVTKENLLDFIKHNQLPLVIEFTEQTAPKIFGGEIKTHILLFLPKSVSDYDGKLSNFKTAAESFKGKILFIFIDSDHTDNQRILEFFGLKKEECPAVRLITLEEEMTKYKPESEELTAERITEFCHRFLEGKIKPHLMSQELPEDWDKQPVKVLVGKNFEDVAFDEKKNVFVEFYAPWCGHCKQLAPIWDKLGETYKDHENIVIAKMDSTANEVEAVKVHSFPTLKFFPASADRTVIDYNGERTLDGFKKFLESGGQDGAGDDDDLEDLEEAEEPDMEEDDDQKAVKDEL

COc1ccccc1C(=O)NC1CCN(C(=O)[C@H]2CC[C@@](C(=O)N[C@H](C(=O)OC(C)(C)C)c3ccccc3)(c3ccccc3)c3ccccc32)CC1 [Co. No. 111] and COc1ccccc1C(=O)NC1CCN(C(=O)[C@H]2CC[C@@](C(=O)N[C@@H](Cc3ccc(O)cc3)C(=O)OC(C)(C)C)(c3ccccc3)c3ccccc32)CC1 [Co. No. 113] are within 0.2 log units of each other in pIC50: 6.66 for the first, 6.79 for the second.

Cn1cccc(C(=O)NC2CCN(C(=O)[C@H]3CC[C@@](C(=O)N[C@@H](Cc4ccccc4)C(=O)OC(C)(C)C)(c4ccccc4)c4ccccc43)CC2)c1=O [Co. No. 178] and Cn1cccc(C(=O)NC2CCN(C(=O)[C@H]3CC[C@@](C(=O)N[C@H](Cc4ccccc4)C(=O)OC(C)(C)C)(c4ccccc4)c4ccccc43)CC2)c1=O [Co. No. 179] are within 0.2 log units of each other in pIC50: 5.83 for the first, 5.88 for the second.

First: CCOC(=O)C1CCCCN1C(=O)[C@@]1(c2ccccc2)CC[C@H](C(=O)N2CCC(NC(=O)c3cccn(C)c3=O)CC2)c2ccccc21 (stereo partly shown) [Co. No. 144]
Second: CCOC(=O)[C@H]1CCCN1C(=O)[C@@]1(c2ccccc2)CC[C@H](C(=O)N2CCC(NC(=O)c3cccn(C)c3=O)CC2)c2ccccc21 [Co. No. 150]
The pIC50 of the first is higher: 5.42 for the first, < 5.00 for the second.

Compared with COC(=O)CNC(=O)[C@@]1(c2ccccc2)CC[C@H](C(=O)N2CCC(NC(=O)c3cccn(C)c3=O)CC2)c2ccccc21 [Co. No. 158], C[C@H](NC(=O)[C@@]1(c2ccccc2)CC[C@H](C(=O)N2CCC(NC(=O)c3cccn(C)c3=O)CC2)c2ccccc21)C(=O)O [Co. No. 183] is lower in pIC50: 6.07 for the first, < 5.00 for the second. The first is the more potent here.

Compared with COC(=O)[C@@H]1C[C@@H](O)CN1C(=O)[C@@]1(c2ccccc2)CC[C@H](C(=O)N2CCC(NC(=O)c3cccn(C)c3=O)CC2)c2ccccc21 [Co. No. 151], CCOC(=O)CN(C)C(=O)[C@@]1(c2ccccc2)CC[C@H](C(=O)N2CCC(NC(=O)c3cccn(C)c3=O)CC2)c2ccccc21 [Co. No. 137] is higher in pIC50: < 5.00 for the first, 6.32 for the second. The second is the more potent here.

CCOC(=O)CC(C)NC(=O)[C@@]1(c2ccccc2)CC[C@H](C(=O)N2CCC(NC(=O)c3cccn(C)c3=O)CC2)c2ccccc21 (mixture of isomers) [Co. No. 223] and C[C@@H](NC(=O)[C@@]1(c2ccccc2)CC[C@H](C(=O)N2CCC(NC(=O)c3cccn(C)c3=O)CC2)c2ccccc21)C(=O)OC(C)(C)C [Co. No. 162] are the same in pIC50: 5.75 for the first, 5.75 for the second.

Compared with CCOC(=O)[C@]1(c2ccccc2)CC[C@@H](C(=O)N2CCN(CC(=O)c3ccccc3OC)CC2)c2ccccc21 [Co. No. 259], CCOC(=O)[C@]1(c2ccccc2)CC[C@@H](C(=O)N2CCC(N(C)C(=O)c3ccccc3OC)CC2)c2ccccc21 [Co. No. 270] is 0.65 log units higher in pIC50: 7.20 for the first, 7.85 for the second.

Going from COC(=O)[C@H](CCCCNC(C)=O)NC(=O)[C@@]1(c2ccccc2)CC[C@H](C(=O)N2CCC(NC(=O)c3ccccc3OC)CC2)c2ccccc21 [Co. No. 130] to CCOC(=O)[C@H](CCCCNC(C)=O)NC(=O)[C@@]1(c2ccccc2)CC[C@H](C(=O)N2CCC(NC(=O)c3ccccc3OC)CC2)c2ccccc21 [Co. No. 131], the pIC50 rises from 6.58 to 7.34 (0.76 log units). The second is the more potent here.

Going from Cn1cccc(C(=O)NC2CCN(C(=O)[C@H]3CC[C@@](C(=O)N[C@@H](CCC(=O)OC(C)(C)C)C(=O)OC(C)(C)C)(c4ccccc4)c4ccccc43)CC2)c1=O [Co. No. 171] to CC(C)C[C@H](NC(=O)[C@@]1(c2ccccc2)CC[C@H](C(=O)N2CCC(NC(=O)c3cccn(C)c3=O)CC2)c2ccccc21)C(=O)OC(C)(C)C [Co. No. 167], the pIC50 falls from 6.38 to 6.10 (0.28 log units). The first is the more potent here.

CCNC(=O)[C@]1(c2ccccc2)CC[C@@H](C(=O)N2CCC(NC(=O)c3ccccc3OC)CC2)c2ccccc21 [Co. No. 38] and COc1ccccc1C(=O)NC1CCN(C(=O)[C@H]2CC[C@@](C(=O)NC(C(=O)O)C(=O)O)(c3ccccc3)c3ccccc32)CC1 [Co. No. 117] are within 0.2 log units of each other in pIC50: 5.42 for the first, 5.32 for the second.

First: Cn1cccc(C(=O)NC2CCN(C(=O)[C@H]3CC[C@@](C(=O)N[C@@H](Cc4ccc(O)cc4)C(=O)OC(C)(C)C)(c4ccccc4)c4ccccc43)CC2)c1=O [Co. No. 180]
Second: Cn1cccc(C(=O)NC2CCN(C(=O)[C@H]3CC[C@@](C(=O)NCCCCCC(=O)OC(C)(C)C)(c4ccccc4)c4ccccc43)CC2)c1=O [Co. No. 230]
The pIC50 of the first is 1.20 log units lower: 5.57 for the first, 6.77 for the second.
